Measurements published in patent US12304890B2, “R-type pyridyloxycarboxylic acid, salt and ester derivative thereof, and preparation method therefor, and herbicidal composition and application thereof” (Qingdao Kingagroot Chemical Compound Co., Ltd., priority 2018, dated 2025).

Assays:
Type in all cases: in vivo
Digitaria sanguinalis = test: Post-emergence test experiment, Digitaria sanguinalis; conditions: 1000 g a.i./ha, 3 weeks in greenhouse, fresh weight inhibition
Method in brief: (§1)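 Greenhouse post-emergence spray at 2-3 leaf stage (2 wk after sowing); acetone/tween-80 formulation, methyl oleate EC synergist 1.5 L/ha, water-diluted. Plants held 3 wk, then fresh weight inhibition rate read.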

[1] = system: Monocotyledonous and dicotyledonous weed seeds and main crop seeds; test: Post-emergence test experiment, other weeds and crops (Table 4, 1000 g a.i./ha); conditions: 3 weeks in greenhouse, fresh weight inhibition
Method in brief: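 Growth inhibition is scored on fresh weight. Spray solutions were made in acetone with tween-80, diluted in water, plus 1.5 L/ha methyl oleate emulsible concentrate. Plants from greenhouse-grown weed and crop seeds were treated post-emergence at 2-3 leaves, 2 weeks after sowing.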

Echinochloa crusgalli = test: Post-emergence test experiment, Echinochloa crusgalli; conditions: 1000 g a.i./ha, 3 weeks in greenhouse, fresh weight inhibition
Method in brief: as §1

SMILES: CC(Oc1nc(F)c(Cl)c(N)c1Cl)C(=O)OCc1ccc(Br)cc1 (centres unmarked) [Compound 2-324]
- Activity level (growth inhibition rate), Digitaria sanguinalis (Digitaria sanguinalis): 5 (Level 5: the growth inhibition rate is greater than 85%)
- Activity level (growth inhibition rate), Abutilon theophrasti Medic. [1]: 5 (Level 5: the growth inhibition rate is greater than 85%)
- Activity level (growth inhibition rate), Galium aparine [1]: 5 (Level 5: the growth inhibition rate is greater than 85%)
- Activity level (growth inhibition rate), Monochoria Vaginalis [1]: 5 (Level 5: the growth inhibition rate is greater than 85%)
- Activity level (growth inhibition rate), Echinochloa crusgalli (Echinochloa crusgalli): 5 (Level 5: the growth inhibition rate is greater than 85%)

SMILES: CC(Oc1nc(F)c(Cl)c(N)c1Cl)C(=O)SCc1ccc(Br)cc1 (centres unmarked) [Compound 2-325]
- Activity level (growth inhibition rate), Digitaria sanguinalis (Digitaria sanguinalis): 5 (Level 5: the growth inhibition rate is greater than 85%)
- Activity level (growth inhibition rate), Abutilon theophrasti Medic. [1]: 5 (Level 5: the growth inhibition rate is greater than 85%)
- Activity level (growth inhibition rate), Galium aparine [1]: 5 (Level 5: the growth inhibition rate is greater than 85%)
- Activity level (growth inhibition rate), Monochoria Vaginalis [1]: 5 (Level 5: the growth inhibition rate is greater than 85%)
- Activity level (growth inhibition rate), Echinochloa crusgalli (Echinochloa crusgalli): 5 (Level 5: the growth inhibition rate is greater than 85%)

SMILES: CC(Oc1nc(F)c(Cl)c(N)c1Cl)C(=O)OCc1ccccc1C(F)(F)F (centres unmarked) [Compound 2-327]
- Activity level (growth inhibition rate), Digitaria sanguinalis (Digitaria sanguinalis): 5 (Level 5: the growth inhibition rate is greater than 85%)
- Activity level (growth inhibition rate), Abutilon theophrasti Medic. [1]: 5 (Level 5: the growth inhibition rate is greater than 85%)
- Activity level (growth inhibition rate), Galium aparine [1]: 5 (Level 5: the growth inhibition rate is greater than 85%)
- Activity level (growth inhibition rate), Monochoria Vaginalis [1]: 5 (Level 5: the growth inhibition rate is greater than 85%)
- Activity level (growth inhibition rate), Echinochloa crusgalli (Echinochloa crusgalli): 5 (Level 5: the growth inhibition rate is greater than 85%)

SMILES: CC(Oc1nc(F)c(Cl)c(N)c1Cl)C(=O)SCc1ccccc1C(F)(F)F (centres unmarked) [Compound 2-328]
- Activity level (growth inhibition rate), Digitaria sanguinalis (Digitaria sanguinalis): 5 (Level 5: the growth inhibition rate is greater than 85%)
- Activity level (growth inhibition rate), Abutilon theophrasti Medic. [1]: 5 (Level 5: the growth inhibition rate is greater than 85%)
- Activity level (growth inhibition rate), Galium aparine [1]: 5 (Level 5: the growth inhibition rate is greater than 85%)
- Activity level (growth inhibition rate), Monochoria Vaginalis [1]: 5 (Level 5: the growth inhibition rate is greater than 85%)
- Activity level (growth inhibition rate), Echinochloa crusgalli (Echinochloa crusgalli): 5 (Level 5: the growth inhibition rate is greater than 85%)

SMILES: CC(Oc1nc(F)c(Cl)c(N)c1Cl)C(=O)OCc1cccc(C(F)(F)F)c1 (centres unmarked) [Compound 2-329]
- Activity level (growth inhibition rate), Digitaria sanguinalis (Digitaria sanguinalis): 5 (Level 5: the growth inhibition rate is greater than 85%)
- Activity level (growth inhibition rate), Abutilon theophrasti Medic. [1]: 5 (Level 5: the growth inhibition rate is greater than 85%)
- Activity level (growth inhibition rate), Galium aparine [1]: 5 (Level 5: the growth inhibition rate is greater than 85%)
- Activity level (growth inhibition rate), Monochoria Vaginalis [1]: 5 (Level 5: the growth inhibition rate is greater than 85%)
- Activity level (growth inhibition rate), Echinochloa crusgalli (Echinochloa crusgalli): 5 (Level 5: the growth inhibition rate is greater than 85%)

SMILES: CC(Oc1nc(F)c(Cl)c(N)c1Cl)C(=O)SCc1cccc(C(F)(F)F)c1 (centres unmarked) [Compound 2-330]
- Activity level (growth inhibition rate), Digitaria sanguinalis (Digitaria sanguinalis): 5 (Level 5: the growth inhibition rate is greater than 85%)
- Activity level (growth inhibition rate), Abutilon theophrasti Medic. [1]: 5 (Level 5: the growth inhibition rate is greater than 85%)
- Activity level (growth inhibition rate), Galium aparine [1]: 5 (Level 5: the growth inhibition rate is greater than 85%)
- Activity level (growth inhibition rate), Monochoria Vaginalis [1]: 5 (Level 5: the growth inhibition rate is greater than 85%)
- Activity level (growth inhibition rate), Echinochloa crusgalli (Echinochloa crusgalli): 5 (Level 5: the growth inhibition rate is greater than 85%)

SMILES: CC(Oc1nc(F)c(Cl)c(N)c1Cl)C(=O)OCc1ccc(C(F)(F)F)cc1 (centres unmarked) [Compound 2-331]
- Activity level (growth inhibition rate), Digitaria sanguinalis (Digitaria sanguinalis): 5 (Level 5: the growth inhibition rate is greater than 85%)
- Activity level (growth inhibition rate), Abutilon theophrasti Medic. [1]: 5 (Level 5: the growth inhibition rate is greater than 85%)
- Activity level (growth inhibition rate), Galium aparine [1]: 5 (Level 5: the growth inhibition rate is greater than 85%)
- Activity level (growth inhibition rate), Monochoria Vaginalis [1]: 5 (Level 5: the growth inhibition rate is greater than 85%)
- Activity level (growth inhibition rate), Echinochloa crusgalli (Echinochloa crusgalli): 5 (Level 5: the growth inhibition rate is greater than 85%)

SMILES: C[C@@H](Oc1nc(F)c(Cl)c(N)c1Cl)C(=O)SCc1ccc(C(F)(F)F)cc1 [Compound 2-332]
- Activity level (growth inhibition rate), Digitaria sanguinalis (Digitaria sanguinalis): 5 (Level 5: the growth inhibition rate is greater than 85%)
- Activity level (growth inhibition rate), Abutilon theophrasti Medic. [1]: 5 (Level 5: the growth inhibition rate is greater than 85%)
- Activity level (growth inhibition rate), Galium aparine [1]: 5 (Level 5: the growth inhibition rate is greater than 85%)
- Activity level (growth inhibition rate), Monochoria Vaginalis [1]: 5 (Level 5: the growth inhibition rate is greater than 85%)
- Activity level (growth inhibition rate), Echinochloa crusgalli (Echinochloa crusgalli): 5 (Level 5: the growth inhibition rate is greater than 85%)

SMILES: C[C@@H](Oc1nc(F)c(Cl)c(N)c1Cl)C(=O)OCc1ccccc1C#N [Compound 2-333]
- Activity level (growth inhibition rate), Digitaria sanguinalis (Digitaria sanguinalis): 5 (Level 5: the growth inhibition rate is greater than 85%)
- Activity level (growth inhibition rate), Abutilon theophrasti Medic. [1]: 5 (Level 5: the growth inhibition rate is greater than 85%)
- Activity level (growth inhibition rate), Galium aparine [1]: 5 (Level 5: the growth inhibition rate is greater than 85%)
- Activity level (growth inhibition rate), Monochoria Vaginalis [1]: 5 (Level 5: the growth inhibition rate is greater than 85%)
- Activity level (growth inhibition rate), Echinochloa crusgalli (Echinochloa crusgalli): 5 (Level 5: the growth inhibition rate is greater than 85%)

SMILES: C[C@@H](Oc1nc(F)c(Cl)c(N)c1Cl)C(=O)SCc1ccccc1C#N [Compound 2-334]
- Activity level (growth inhibition rate), Digitaria sanguinalis (Digitaria sanguinalis): 5 (Level 5: the growth inhibition rate is greater than 85%)
- Activity level (growth inhibition rate), Abutilon theophrasti Medic. [1]: 5 (Level 5: the growth inhibition rate is greater than 85%)
- Activity level (growth inhibition rate), Galium aparine [1]: 5 (Level 5: the growth inhibition rate is greater than 85%)
- Activity level (growth inhibition rate), Monochoria Vaginalis [1]: 5 (Level 5: the growth inhibition rate is greater than 85%)
- Activity level (growth inhibition rate), Echinochloa crusgalli (Echinochloa crusgalli): 5 (Level 5: the growth inhibition rate is greater than 85%)

SMILES: C[C@@H](Oc1nc(F)c(Cl)c(N)c1Cl)C(=O)OCc1cccc(C#N)c1 [Compound 2-335]
- Activity level (growth inhibition rate), Digitaria sanguinalis (Digitaria sanguinalis): 5 (Level 5: the growth inhibition rate is greater than 85%)
- Activity level (growth inhibition rate), Abutilon theophrasti Medic. [1]: 5 (Level 5: the growth inhibition rate is greater than 85%)
- Activity level (growth inhibition rate), Galium aparine [1]: 5 (Level 5: the growth inhibition rate is greater than 85%)
- Activity level (growth inhibition rate), Monochoria Vaginalis [1]: 5 (Level 5: the growth inhibition rate is greater than 85%)
- Activity level (growth inhibition rate), Echinochloa crusgalli (Echinochloa crusgalli): 5 (Level 5: the growth inhibition rate is greater than 85%)

SMILES: C[C@@H](Oc1nc(F)c(Cl)c(N)c1Cl)C(=O)SCc1cccc(C#N)c1 [Compound 2-336]
- Activity level (growth inhibition rate), Digitaria sanguinalis (Digitaria sanguinalis): 5 (Level 5: the growth inhibition rate is greater than 85%)
- Activity level (growth inhibition rate), Abutilon theophrasti Medic. [1]: 5 (Level 5: the growth inhibition rate is greater than 85%)
- Activity level (growth inhibition rate), Galium aparine [1]: 5 (Level 5: the growth inhibition rate is greater than 85%)
- Activity level (growth inhibition rate), Monochoria Vaginalis [1]: 5 (Level 5: the growth inhibition rate is greater than 85%)
- Activity level (growth inhibition rate), Echinochloa crusgalli (Echinochloa crusgalli): 5 (Level 5: the growth inhibition rate is greater than 85%)

SMILES: C[C@@H](Oc1nc(F)c(Cl)c(N)c1Cl)C(=O)OCc1ccc(C#N)cc1 [Compound 2-337]
- Activity level (growth inhibition rate), Digitaria sanguinalis (Digitaria sanguinalis): 5 (Level 5: the growth inhibition rate is greater than 85%)
- Activity level (growth inhibition rate), Abutilon theophrasti Medic. [1]: 5 (Level 5: the growth inhibition rate is greater than 85%)
- Activity level (growth inhibition rate), Galium aparine [1]: 5 (Level 5: the growth inhibition rate is greater than 85%)
- Activity level (growth inhibition rate), Monochoria Vaginalis [1]: 5 (Level 5: the growth inhibition rate is greater than 85%)
- Activity level (growth inhibition rate), Echinochloa crusgalli (Echinochloa crusgalli): 5 (Level 5: the growth inhibition rate is greater than 85%)

SMILES: C[C@@H](Oc1nc(F)c(Cl)c(N)c1Cl)C(=O)SCc1ccc(C#N)cc1 [Compound 2-338]
- Activity level (growth inhibition rate), Digitaria sanguinalis (Digitaria sanguinalis): 5 (Level 5: the growth inhibition rate is greater than 85%)
- Activity level (growth inhibition rate), Abutilon theophrasti Medic. [1]: 5 (Level 5: the growth inhibition rate is greater than 85%)
- Activity level (growth inhibition rate), Galium aparine [1]: 5 (Level 5: the growth inhibition rate is greater than 85%)
- Activity level (growth inhibition rate), Monochoria Vaginalis [1]: 5 (Level 5: the growth inhibition rate is greater than 85%)
- Activity level (growth inhibition rate), Echinochloa crusgalli (Echinochloa crusgalli): 5 (Level 5: the growth inhibition rate is greater than 85%)

SMILES: C[C@@H](Oc1nc(F)c(Cl)c(N)c1Cl)C(=O)Sc1ccc2ccccc2c1 [Compound 2-339]
- Activity level (growth inhibition rate), Digitaria sanguinalis (Digitaria sanguinalis): 5 (Level 5: the growth inhibition rate is greater than 85%)
- Activity level (growth inhibition rate), Abutilon theophrasti Medic. [1]: 5 (Level 5: the growth inhibition rate is greater than 85%)
- Activity level (growth inhibition rate), Galium aparine [1]: 5 (Level 5: the growth inhibition rate is greater than 85%)
- Activity level (growth inhibition rate), Monochoria Vaginalis [1]: 5 (Level 5: the growth inhibition rate is greater than 85%)
- Activity level (growth inhibition rate), Echinochloa crusgalli (Echinochloa crusgalli): 5 (Level 5: the growth inhibition rate is greater than 85%)

SMILES: C[C@@H](Oc1nc(F)c(Cl)c(N)c1Cl)C(=O)OCc1ccc2ccccc2c1 [Compound 2-340]
- Activity level (growth inhibition rate), Digitaria sanguinalis (Digitaria sanguinalis): 5 (Level 5: the growth inhibition rate is greater than 85%)
- Activity level (growth inhibition rate), Abutilon theophrasti Medic. [1]: 5 (Level 5: the growth inhibition rate is greater than 85%)
- Activity level (growth inhibition rate), Galium aparine [1]: 5 (Level 5: the growth inhibition rate is greater than 85%)
- Activity level (growth inhibition rate), Monochoria Vaginalis [1]: 5 (Level 5: the growth inhibition rate is greater than 85%)
- Activity level (growth inhibition rate), Echinochloa crusgalli (Echinochloa crusgalli): 5 (Level 5: the growth inhibition rate is greater than 85%)
